Results published in patent US11458212B2, “Molecular imaging of cancer cells in vivo” (H. Lee Moffitt Cancer Center and Research Institute, Inc., priority 2011, dated 2022).
Entries after “also recorded” stand apart in the source; their conditions may differ. Each block holds one molecule with its values, some of them ahead of it. Where a SMILES comes first, the peptide text is derived from it. Primed or numbered codes have the meaning given here. The star is where a group is joined. Adapalene = Adapaleneyl (acyl group from adapalene), COc1ccc(-c2ccc3cc(C(=O)*)ccc3c2)cc1C12CC3CC(CC(C3)C1)C2; Propyl(2R-PamO,3-PamO) = CCCCCCCCCCCCCCCC(=O)OC[C@H](C*)OC(=O)CCCCCCCCCCCCCCC; X2 = CCCCCCCCCCCCCCCC(=O)OCC(C*)OC(=O)CCCCCCCCCCCCCCC; X1 = CC(=O)NCCCOCCOCCOCCCNC(=O)COCC(=O)*; Palmitoyl = CCCCCCCCCCCCCCCC(=O)*; Ahx = NCCCCCC(=O)O; Dhc(Pam)2″ = lipid

Tests used:
TLR2 = TLR2 (Homo sapiens, UniProt O60603); test: In vitro TLR2 functional bioassay (NF-κB luciferase, HEK293/hTLR2 cells); type: cell-based; set-up: host or cells: HEK293 stably transfected with pUNO-hTLR2, transiently transfected with the pNifty-Luc reporter; details: for TLR2 Agonist Activity: screened at 1 μg/mL; for EC50: log(agonist) vs. normalized response, doses 0.01 ng/mL to 1 μg/mL, read-out: EC50; for fold of enhancement vs SAA at 1 μg/mL / fold of enhancement vs SAA at 10 μg/mL: compound at 1 μg/mL
Source text: In Vitro TLR2 Functional Bioassay The in vitro TLR2 functional bioassay was developed and optimized for use in screening soluble compound libraries to identify both TLR2 agonists and antagonists. In this study, the TLR2 functional bioassay was used as a fast high throughput screening to identify TLR2 agonist ligands by measuring the inducing activity of NF-κB. HEK293/hTLR2 cells, highly overexpressing human TLR2, were used along with the parental HEK293, cells as a negative control. Cells were seeded at a density of 40,000 per well using a WellMate® Microplate dispenser (Thermo Fischer Scientific/Matrix) in black 96-well plates with opaque white wells (Perkin Elmer Wallac, Waltham, Mass.) and then incubated at 37° C. On day 2, the cells were transiently transfected with pNifty-Luc (InvivoGen), an NF-κB inducible reporter plasmid expressing the luciferase reporter gene (Zuany-Amorim, C., J., et al. Nat Rev Drug Discov, 2002. 1(10):797-807), using an optimized 4:1 ratio by volume of Fugene® HD Transfection Reagent (Roche Applied Science, Indianapolis, Ind.) to pNifty-Luc plasmid DNA (1 μg/mL). […] On day 4 after 24 hrs of peptide stimulation, luciferase induced activity by the induction of NF-κB was measured. Media was aspirated from the wells using an ELx405 Select plate washer (BioTek, Winooski, Vt.), 150 μg/mL D-luciferin (Gold Biotechnology, St. Louis, Mo.) was dispensed using the microplate dispensor; the plates were incubated at 37° C. for 5 min. The luminescence intensity was measured using the standard luminescence protocol on a Victor™ X4 plate-reader equipped with a plate stacker for readout of multiple plates at a time (PerkinElmer, Waltham, Mass.). For each in vitro TLR2 bioassay, at least three different experiments were performed in triplicate (n=3+). Data were analyzed with GraphPad Prism software and curves were generated with the appropriate nonlinear fit regression analysis.
The in vitro TLR2 functional bioassay was developed and optimized for use in high-throughput screening of soluble compound libraries to identify both TLR2 agonists and antagonists. The bioassay measures the induction of NF-κB signaling via TLR2 in HEK-293/hTLR2 cells and parental HEK-293 cells as a negative control. Cells were seeded at a density of 40,000 per well using a WellMate Microplate dispenser (Thermo Fisher Scientific/Matrix) in black 96-well plates with opaque white wells (PerkinElmer, Waltham, Mass.) and then incubated at 37° C. On day 2, the cells were transiently transfected with pNifty-Luc (InvivoGen, San Diego, Calif.), an NF-κB inducible reporter plasmid expressing the luciferase reporter gene[28] using an optimized 4:1 ratio by volume of FugeneHD Transfection Reagent (Promega, Madison, Wis.) to pNifty-Luc plasmid DNA (1 μg/mL). […] […] On day 4 after 24 h of peptide stimulation, luciferase induced activity by the induction of NF-κB was measured. Media was aspirated from the wells using an ELx405 Select CW plate washer (BioTek, Winooski, Vt.), 150 μg/mL D-luciferin (Gold Biotechnology, St. Louis, Mo.) was dispensed using the microplate dispensor; the plates were incubated at 37° C. for 5 min. The luminescence intensity was measured using the standard luminescence protocol on a Victor X4 Multilabel plate reader equipped with a plate stacker for readout of multiple plates at a time (PerkinElmer, Waltham, Mass.). […] Data were analyzed with GraphPad Prism software and curves were generated with the appropriate nonlinear fit regression analysis.

[1] = tested on: Trp1455/9M-specific CD8 T cells; test: In vivo cellular immune response assay (immune adjuvant); set-up: species or system B6 mice; details: for in vivo immune adjuvant activity (generation and persistence of antigen-specific CD8 T cells): compared with Pam2CSK4 and Pam3CSK4
Description: To assess the efficacy of T-02 as an immune adjuvant, mice were immunized i.v. with a mixture of 100 μg optimized Trp1455/9M peptide (Guevara-Patino, J. A., et al. J Clin Invest, 2006. 116(5):1382-90), 50 μg anti-CD40 mAb (Clone; FGk-45.5), and 50 μg TLR-2 peptide (T-02, Pam2CSK4, or Pam3CSK4). […] The response of tetramer+ CD8 T cells in the blood was measured on day 7, 21, and 34 by tetramer staining. For tetramer staining, peripheral blood was taken from the submandibular vein and treated briefly with ammonium chloride buffer to lyse red blood cells. Blood cells were stained with FITC-conjugated anti-MHC class II, PerCP Cy5.5-conjugated CD8a (both from eBioscience, San Diego, Calif.), and phycoerythrin-conjugated Trp1455/9M/H-2D^b tetramers (provided by the NIH tetramer Facility, Emory University, Atlanta Ga.) for 40 min in ice. Fluorescence was evaluated using a FACSCalibur™ flow cytometer (BD Biosciences) and analyzed using FlowJo software.
C57BL/6 (B6) mice 6-8 weeks old were purchased from Charles River (Wilmington, Mass.). To assess the efficacy of 10 as an immune adjuvant, B6 mice were immunized i.v. with a mixture (in a volume of 200 μl) of 100 μg optimized Trp1455/9M peptide,[10c] 50 μg anti-CD40 monoclonal antibody (Clone; FGk-45.5), and 50 μg TLR2 agonist (10, Pam2CSK4, or Pam3CSK4). […] The response of tetramer positive CD8 T cells in the blood was measured on day 7, 21 and 34 by tetramer staining. For tetramer staining, peripheral blood was taken from the submandibular vein and treated briefly with ammonium chloride buffer to lyse red blood cells. Blood cells were stained with FITC-conjugated anti-MHC class II, PerCP Cy5.5-conjugated CD8a, and phycoerythrin-conjugated Trp1455/9M/H-2D^b tetramers for 40 min in ice. Fluorescence was evaluated using a FACSCalibur flow cytometer (BD Biosciences) and analyzed using FlowJo software.

Sequence of TLR2 (O60603 21-784): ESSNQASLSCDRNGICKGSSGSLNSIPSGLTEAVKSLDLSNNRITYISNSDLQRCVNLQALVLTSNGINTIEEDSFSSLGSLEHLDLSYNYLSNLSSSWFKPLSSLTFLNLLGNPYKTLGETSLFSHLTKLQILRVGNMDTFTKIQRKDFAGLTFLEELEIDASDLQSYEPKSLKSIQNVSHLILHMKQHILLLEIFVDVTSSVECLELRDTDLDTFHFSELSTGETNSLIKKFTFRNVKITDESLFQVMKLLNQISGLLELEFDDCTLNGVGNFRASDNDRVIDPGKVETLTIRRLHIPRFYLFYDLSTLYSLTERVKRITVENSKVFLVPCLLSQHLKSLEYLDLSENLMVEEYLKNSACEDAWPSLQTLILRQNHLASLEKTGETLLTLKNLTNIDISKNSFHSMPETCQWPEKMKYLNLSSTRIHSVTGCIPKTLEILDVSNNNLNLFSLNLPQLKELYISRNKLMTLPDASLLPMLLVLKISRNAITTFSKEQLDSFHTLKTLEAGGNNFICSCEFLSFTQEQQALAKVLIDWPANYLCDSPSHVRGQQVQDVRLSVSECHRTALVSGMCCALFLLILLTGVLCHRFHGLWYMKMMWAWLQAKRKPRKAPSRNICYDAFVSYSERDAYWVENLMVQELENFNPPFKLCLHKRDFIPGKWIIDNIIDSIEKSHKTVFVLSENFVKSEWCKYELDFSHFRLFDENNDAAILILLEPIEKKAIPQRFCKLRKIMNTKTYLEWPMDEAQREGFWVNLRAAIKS
Sequence of TLR2 (Q9Y2C9 32-796 partner): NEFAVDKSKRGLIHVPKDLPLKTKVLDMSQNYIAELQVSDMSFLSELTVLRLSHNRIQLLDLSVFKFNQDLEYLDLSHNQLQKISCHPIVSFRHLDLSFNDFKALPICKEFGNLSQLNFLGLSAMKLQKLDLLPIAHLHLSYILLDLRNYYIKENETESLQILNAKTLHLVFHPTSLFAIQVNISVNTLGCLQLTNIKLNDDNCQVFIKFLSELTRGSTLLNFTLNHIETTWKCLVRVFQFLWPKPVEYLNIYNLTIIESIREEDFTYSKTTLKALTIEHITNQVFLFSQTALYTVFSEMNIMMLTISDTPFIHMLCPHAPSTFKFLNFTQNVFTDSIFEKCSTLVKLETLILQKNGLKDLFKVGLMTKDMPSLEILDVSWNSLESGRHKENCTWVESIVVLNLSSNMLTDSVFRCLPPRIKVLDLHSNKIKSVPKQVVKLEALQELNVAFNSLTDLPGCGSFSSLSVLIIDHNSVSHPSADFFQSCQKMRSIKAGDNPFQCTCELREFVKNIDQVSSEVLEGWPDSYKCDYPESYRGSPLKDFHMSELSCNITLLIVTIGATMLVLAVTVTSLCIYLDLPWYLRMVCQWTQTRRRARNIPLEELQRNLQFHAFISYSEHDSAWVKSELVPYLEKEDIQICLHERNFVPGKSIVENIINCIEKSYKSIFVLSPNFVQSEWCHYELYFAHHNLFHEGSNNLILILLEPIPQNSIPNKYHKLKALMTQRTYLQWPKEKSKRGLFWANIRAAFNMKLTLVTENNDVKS

Molecule: Ac-Aha-Dhc(Pam)2-Gly-Asn-Asn-Asp-Glu-Ser-Asn-Ile-Ser-Phe-Lys-Glu-Lys-NH2 ({Ac-Ahx-Dhc(Pam)2″}-GNNDESNISFKEK-NH2) [Compound 4]
TLR2 Agonist Activity (TLR2): Yes

Molecule: Ac-Aun(C11)-Dhc(Pam)2-Gly-Asn-Asn-Asp-Glu-Ser-Asn-Ile-Ser-Phe-Lys-Glu-Lys-NH2 ({Ac-Aun(C11)-Dhc(Pam)2″}-GNNDESNISFKEK-NH2) [Compound 6]
TLR2 Agonist Activity (TLR2): Yes

Molecule: CCCCCCCCCCCCCCCC(=O)OC[C@H](CSC[C@H](NC(=O)COCC(=O)NCCCOCCOCCOCCCNC(C)=O)C(=O)NCC(=O)N[C@@H](CC(N)=O)C(=O)N[C@@H](CC(N)=O)C(=O)N[C@@H](CC(=O)O)C(=O)N[C@@H](CCC(=O)O)C(=O)N[C@@H](CO)C(=O)N[C@@H](CC(N)=O)C(=O)N[C@H](C(=O)N[C@@H](CO)C(=O)N[C@@H](Cc1ccccc1)C(=O)N[C@@H](CCCCN)C(=O)N[C@@H](CCC(=O)O)C(=O)N[C@@H](CCCCN)C(N)=O)[C@@H](C)CC)OC(=O)CCCCCCCCCCCCCCC [Compound 3] (X1-C(Propyl(2R-PamO,3-PamO))GNNDESNISFKEK-NH2)
EC50 (TLR2): 55.6 nM
TLR2 Agonist Activity (TLR2): Yes

Molecule: CCCCCCCCCCCCCCCC(=O)OCC(CSCC(NC(=O)COCC(=O)NCCCOCCOCCOCCCNC(C)=O)C(=O)NC(CO)C(=O)NC(CCCNC(=N)N)C(=O)NC(Cc1ccccc1)C(=O)NC(CC(=O)O)C(=O)NC(CCC(=O)O)C(=O)NC(CC(=O)O)C(=O)NC(CC(=O)O)C(=O)NC(CC(C)C)C(=O)NC(CCC(=O)O)C(N)=O)OC(=O)CCCCCCCCCCCCCCC (centres unmarked) [Compound 8] (X1-C(X2)SRFDEDDLE-NH2; configuration not given here)
fold of enhancement vs SAA at 1 μg/mL (TLR2): 11 fold
fold of enhancement vs SAA at 10 μg/mL (TLR2): 4.2 fold

Molecule: Pam-Dhc(Pam)2-Gly-Asn-Asn-Asp-Glu-Ser-Asn-Ile-Ser-Phe-Lys-Glu-Lys-NH2 ({Palmitoyl-Dhc(Pam)2″}-GNNDESNISFKEK-NH2) [Compound 1]
TLR2 Agonist Activity (TLR2): Yes

Molecule: CCCCCCCCCCCCCCCC(=O)OC[C@H](CSC[C@H](NC(=O)COCC(=O)NCCCOCCOCCOCCCNC(C)=O)C(=O)NCC(=O)N[C@@H](CO)C(=O)N[C@@H](CCC(N)=O)C(=O)N[C@@H](CC(N)=O)C(=O)N[C@@H](CC(C)C)C(=O)N[C@@H](C)C(=O)N[C@@H](CO)C(=O)N[C@@H](CC(C)C)C(=O)N[C@@H](CCC(=O)O)C(=O)N[C@@H](CCC(=O)O)C(N)=O)OC(=O)CCCCCCCCCCCCCCC [Compound 9] (X1-C(Propyl(2R-PamO,3-PamO))GSQNLASLEE-NH2)
fold of enhancement vs SAA at 1 μg/mL (TLR2): 13 fold
fold of enhancement vs SAA at 10 μg/mL (TLR2): 4.8 fold
EC50 (TLR2): 78.4 nM

More lines, main results first:

TLR2 Agonist Activity (TLR2): Yes
Molecule: Fluorescein-Dhc(Pam)2-Gly-Asn-Asn-Asp-Glu-Ser-Asn-Ile-Ser-Phe-Lys-Glu-Lys-NH2 ({Fluorescein-Dhc(Pam)2″}-GNNDESNISFKEK-NH2) [Compound 2]

TLR2 Agonist Activity (TLR2): Yes
Molecule: Adapalene-Dhc(Pam)2-Gly-Asn-Asn-Asp-Glu-Ser-Asn-Ile-Ser-Phe-Lys-Glu-Lys-NH2 ({Adapalene-Dhc(Pam)2″}-GNNDESNISFKEK-NH2) [Compound 5]

TLR2 Agonist Activity (TLR2): Yes
Molecule: Tretinoin-Dhc(Pam)2-Gly-Asn-Asn-Asp-Glu-Ser-Asn-Ile-Ser-Phe-Lys-Glu-Lys-NH2 [Compound 7]

TLR2 agonist activity of vaccine peptide (TLR2): not a TLR2 agonist
Molecule: Trp1455/9M: Trp1455/9M (TAPDNLGYM), H2 Db-optimized peptide from mouse tyrosinase-related protein-1, epitope for CD8 T cells [reference compound]

fold of enhancement vs SAA at 1 μg/mL (TLR2): 14 fold
fold of enhancement vs SAA at 10 μg/mL (TLR2): 5.2 fold
Molecule: CCCCCCCCCCCCCCCC(=O)OC[C@H](CSC[C@H](NC(=O)COCC(=O)NCCCOCCOCCOCCCNC(C)=O)C(=O)NCC(=O)NC(CO)C(=O)NCCCOCCOCCOCCCNC(=O)COCC(N)=O)OC(=O)CCCCCCCCCCCCCCC (stereo partly drawn) [Compound 10, Ac-PEGO-Dhc(Pam)2-Gly-Ser-PEGO-NH2]
in vivo immune adjuvant activity (generation and persistence of antigen-specific CD8 T cells) [1]: stimulated the immune system by generation and persistence of antigen-specific CD8 T cells; also recorded: exhibited activity similar to the other known TLR2 agonists; also recorded: induced an in vivo immune response comparable to the currently available TLR2 synthetic agonists
in vivo immune adjuvant activity (generation and persistence of antigen-specific CD8 T cells) ([1]; listed as T-02): exhibited similar in vivo activity comparable to the TLR-2 agonists, Pam2CSK4 and Pam3CSK4
fluorescence of stained tetramer positive CD8 T cells ([1]; day 7): High fluorescence
response rate of the tetramer positive CD8 T cells ([1]; day 7): 100%
maximum amount of fluorescently stained tetramer positive CD8 T cells ([1]; day 7, peripheral blood, i.v. immunization, n=3): 49.6%
tetramer positive CD8 T cells ([1]; day 21): 25.7%
tetramer positive CD8 T cells ([1]; day 34): 12.7%
